Common to all, as to experiment: biochemical
What all share (parameters): Eurofins KinaseProfiler full panel at Km ATP, residual kinase activity (%) relative to DMSO

The target of one test is CSK(h) (Homo sapiens, UniProt P41240). In short, it runs like this: (§1)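 Radiometric kinase activity assays were run with ATP at Km and compounds at 10 µM, and remaining activity (%) was reported. A separate competitive binding screen measured DNA-tagged kinase displaced from immobilized active-site ligands by qPCR, giving percent kinase still bound at 10 µM compound in DMSO.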

A further test concerns the target T1, DCAMKL1(h) (Homo sapiens, UniProt O15075).
T1 construct: gene DCLK1
T1 sequence (O15075 1-740): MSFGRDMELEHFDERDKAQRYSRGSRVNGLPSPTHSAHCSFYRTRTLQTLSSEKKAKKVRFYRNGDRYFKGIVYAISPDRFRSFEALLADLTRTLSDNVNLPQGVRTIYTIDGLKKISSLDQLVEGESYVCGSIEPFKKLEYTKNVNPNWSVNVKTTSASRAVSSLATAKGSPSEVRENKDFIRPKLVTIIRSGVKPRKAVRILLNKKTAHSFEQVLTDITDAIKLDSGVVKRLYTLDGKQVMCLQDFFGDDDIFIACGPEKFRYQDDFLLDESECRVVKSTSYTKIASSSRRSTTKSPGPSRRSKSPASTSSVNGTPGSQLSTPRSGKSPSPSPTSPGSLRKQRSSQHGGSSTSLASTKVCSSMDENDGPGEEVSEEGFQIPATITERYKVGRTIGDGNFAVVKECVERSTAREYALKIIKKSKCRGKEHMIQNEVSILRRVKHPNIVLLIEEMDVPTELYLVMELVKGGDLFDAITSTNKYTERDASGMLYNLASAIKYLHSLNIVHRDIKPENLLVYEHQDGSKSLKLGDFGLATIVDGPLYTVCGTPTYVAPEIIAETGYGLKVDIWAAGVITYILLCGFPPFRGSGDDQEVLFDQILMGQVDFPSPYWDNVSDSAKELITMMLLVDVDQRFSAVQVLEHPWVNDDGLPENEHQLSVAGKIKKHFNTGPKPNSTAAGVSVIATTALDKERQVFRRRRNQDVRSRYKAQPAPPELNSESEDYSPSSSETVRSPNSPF
In outline: as §1

Another test has as its target EphA4(h) (Homo sapiens, UniProt P54764). In short, it runs like this:
as §1

Another test has as its target T2, MLK4(h) (Homo sapiens, UniProt Q5TCX8).
T2 construct: gene MAP3K21
In outline:
as §1

A further test concerns the target T3, Mer(h) (Homo sapiens, UniProt Q12866).
T3 construct: gene MERTK
T3 sequence (Q12866 1-999): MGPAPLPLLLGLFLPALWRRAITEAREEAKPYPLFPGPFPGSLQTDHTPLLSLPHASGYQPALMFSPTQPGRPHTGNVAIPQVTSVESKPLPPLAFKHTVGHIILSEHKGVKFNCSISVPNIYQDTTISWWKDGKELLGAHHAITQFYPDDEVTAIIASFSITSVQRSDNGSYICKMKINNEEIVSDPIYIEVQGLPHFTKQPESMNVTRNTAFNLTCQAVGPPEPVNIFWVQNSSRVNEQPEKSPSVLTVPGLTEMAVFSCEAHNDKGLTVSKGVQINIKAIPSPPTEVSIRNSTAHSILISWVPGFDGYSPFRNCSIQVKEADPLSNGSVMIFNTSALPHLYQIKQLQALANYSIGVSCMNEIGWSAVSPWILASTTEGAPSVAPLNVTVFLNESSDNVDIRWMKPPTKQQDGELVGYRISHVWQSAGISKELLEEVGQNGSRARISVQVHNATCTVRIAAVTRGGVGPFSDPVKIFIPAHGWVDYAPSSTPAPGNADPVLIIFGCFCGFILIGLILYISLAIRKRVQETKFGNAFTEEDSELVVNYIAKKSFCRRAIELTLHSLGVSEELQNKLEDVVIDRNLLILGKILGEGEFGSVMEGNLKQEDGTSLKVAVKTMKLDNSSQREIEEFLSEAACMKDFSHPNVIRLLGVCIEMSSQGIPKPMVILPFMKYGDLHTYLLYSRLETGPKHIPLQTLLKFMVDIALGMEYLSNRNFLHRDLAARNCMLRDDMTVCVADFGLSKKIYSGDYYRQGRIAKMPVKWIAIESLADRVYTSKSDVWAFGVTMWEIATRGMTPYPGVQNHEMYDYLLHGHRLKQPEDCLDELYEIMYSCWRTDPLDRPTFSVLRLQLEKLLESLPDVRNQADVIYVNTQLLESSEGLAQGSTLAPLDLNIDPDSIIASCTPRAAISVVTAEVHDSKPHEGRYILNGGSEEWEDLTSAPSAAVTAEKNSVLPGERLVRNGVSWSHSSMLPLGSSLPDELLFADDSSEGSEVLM
In outline:
as §1

The target in the next test is T4, NDR1(h) (Homo sapiens, UniProt Q15208).
T4 construct: gene STK38
In short, it runs like this:
as §1

Another test addresses T5, PKCβI(h) (Homo sapiens, UniProt P05771).
T5 construct: gene PRKCB; isoform beta I
In short, it runs like this: as §1

The target of a further test is TTBK2(h) (Homo sapiens, UniProt Q6IQ55). In outline: as §1
Setting [1] is: read-out: Residual activity (%) 5at.
Where [2] appears, read: read-out: Residual activity (%) 5ay.
Setting [3] is: read-out: Residual activity (%) 5as.
Setting [4] is: read-out: Residual activity (%) Spautin-1 5aa.

Where two headings read alike, the source gives them in different places.

Sequence of CSK(h) (P41240 whole entry): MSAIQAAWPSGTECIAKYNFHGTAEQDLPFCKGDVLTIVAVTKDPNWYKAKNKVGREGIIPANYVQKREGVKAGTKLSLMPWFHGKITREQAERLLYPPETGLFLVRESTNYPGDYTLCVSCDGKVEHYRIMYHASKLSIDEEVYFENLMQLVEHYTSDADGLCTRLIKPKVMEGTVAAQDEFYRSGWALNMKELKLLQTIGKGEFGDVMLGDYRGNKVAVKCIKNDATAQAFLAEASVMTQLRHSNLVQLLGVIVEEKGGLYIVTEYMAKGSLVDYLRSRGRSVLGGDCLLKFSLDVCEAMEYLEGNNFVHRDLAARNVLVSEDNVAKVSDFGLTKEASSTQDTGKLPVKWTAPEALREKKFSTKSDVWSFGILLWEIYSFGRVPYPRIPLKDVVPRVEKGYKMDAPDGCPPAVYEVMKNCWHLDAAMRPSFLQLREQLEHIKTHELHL
T5 sequence (P05771 whole entry, canonical isoform): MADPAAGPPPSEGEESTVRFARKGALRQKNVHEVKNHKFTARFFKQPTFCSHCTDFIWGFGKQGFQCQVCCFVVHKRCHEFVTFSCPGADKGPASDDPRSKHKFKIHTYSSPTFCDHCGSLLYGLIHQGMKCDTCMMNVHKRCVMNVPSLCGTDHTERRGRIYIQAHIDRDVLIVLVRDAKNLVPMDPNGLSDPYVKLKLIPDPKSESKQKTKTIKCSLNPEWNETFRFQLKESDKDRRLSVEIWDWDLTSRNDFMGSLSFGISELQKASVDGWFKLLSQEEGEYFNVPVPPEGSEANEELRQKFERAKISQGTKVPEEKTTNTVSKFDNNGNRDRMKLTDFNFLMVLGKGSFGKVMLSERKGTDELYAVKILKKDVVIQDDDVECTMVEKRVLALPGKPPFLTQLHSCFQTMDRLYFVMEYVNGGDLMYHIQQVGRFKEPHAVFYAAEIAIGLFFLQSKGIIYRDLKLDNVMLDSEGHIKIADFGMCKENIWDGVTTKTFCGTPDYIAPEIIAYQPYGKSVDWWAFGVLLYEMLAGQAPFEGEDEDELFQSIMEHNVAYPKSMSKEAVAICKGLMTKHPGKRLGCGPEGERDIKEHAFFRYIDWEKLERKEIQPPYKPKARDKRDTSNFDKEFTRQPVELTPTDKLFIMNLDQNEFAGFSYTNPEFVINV
T2 sequence (Q5TCX8 whole entry): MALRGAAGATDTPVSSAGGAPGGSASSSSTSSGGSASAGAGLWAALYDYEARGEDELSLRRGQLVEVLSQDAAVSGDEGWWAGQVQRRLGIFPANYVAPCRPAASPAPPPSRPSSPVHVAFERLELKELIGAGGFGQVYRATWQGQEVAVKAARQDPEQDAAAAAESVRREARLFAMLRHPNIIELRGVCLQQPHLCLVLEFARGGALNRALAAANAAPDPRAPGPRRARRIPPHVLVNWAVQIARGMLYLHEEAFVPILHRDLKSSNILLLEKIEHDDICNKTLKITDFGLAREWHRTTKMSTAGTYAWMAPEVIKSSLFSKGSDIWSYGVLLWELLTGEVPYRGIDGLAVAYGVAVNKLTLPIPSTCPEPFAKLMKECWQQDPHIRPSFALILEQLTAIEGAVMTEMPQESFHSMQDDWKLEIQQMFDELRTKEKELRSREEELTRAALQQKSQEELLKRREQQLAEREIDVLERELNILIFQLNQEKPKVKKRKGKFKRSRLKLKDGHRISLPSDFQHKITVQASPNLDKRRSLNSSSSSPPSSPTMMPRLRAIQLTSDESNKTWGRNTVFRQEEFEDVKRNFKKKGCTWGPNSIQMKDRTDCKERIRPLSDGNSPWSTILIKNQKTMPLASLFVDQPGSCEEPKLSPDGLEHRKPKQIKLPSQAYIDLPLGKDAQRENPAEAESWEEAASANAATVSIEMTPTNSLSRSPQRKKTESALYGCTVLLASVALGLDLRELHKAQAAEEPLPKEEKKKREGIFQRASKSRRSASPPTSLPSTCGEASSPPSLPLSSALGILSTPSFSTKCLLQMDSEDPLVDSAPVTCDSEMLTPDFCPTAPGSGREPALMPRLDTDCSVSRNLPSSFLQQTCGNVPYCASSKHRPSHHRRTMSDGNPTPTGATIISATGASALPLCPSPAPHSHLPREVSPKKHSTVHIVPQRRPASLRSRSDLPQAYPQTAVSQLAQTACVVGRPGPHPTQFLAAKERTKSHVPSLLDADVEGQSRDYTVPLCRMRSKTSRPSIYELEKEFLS
Sequence of EphA4(h) (P54764 whole entry): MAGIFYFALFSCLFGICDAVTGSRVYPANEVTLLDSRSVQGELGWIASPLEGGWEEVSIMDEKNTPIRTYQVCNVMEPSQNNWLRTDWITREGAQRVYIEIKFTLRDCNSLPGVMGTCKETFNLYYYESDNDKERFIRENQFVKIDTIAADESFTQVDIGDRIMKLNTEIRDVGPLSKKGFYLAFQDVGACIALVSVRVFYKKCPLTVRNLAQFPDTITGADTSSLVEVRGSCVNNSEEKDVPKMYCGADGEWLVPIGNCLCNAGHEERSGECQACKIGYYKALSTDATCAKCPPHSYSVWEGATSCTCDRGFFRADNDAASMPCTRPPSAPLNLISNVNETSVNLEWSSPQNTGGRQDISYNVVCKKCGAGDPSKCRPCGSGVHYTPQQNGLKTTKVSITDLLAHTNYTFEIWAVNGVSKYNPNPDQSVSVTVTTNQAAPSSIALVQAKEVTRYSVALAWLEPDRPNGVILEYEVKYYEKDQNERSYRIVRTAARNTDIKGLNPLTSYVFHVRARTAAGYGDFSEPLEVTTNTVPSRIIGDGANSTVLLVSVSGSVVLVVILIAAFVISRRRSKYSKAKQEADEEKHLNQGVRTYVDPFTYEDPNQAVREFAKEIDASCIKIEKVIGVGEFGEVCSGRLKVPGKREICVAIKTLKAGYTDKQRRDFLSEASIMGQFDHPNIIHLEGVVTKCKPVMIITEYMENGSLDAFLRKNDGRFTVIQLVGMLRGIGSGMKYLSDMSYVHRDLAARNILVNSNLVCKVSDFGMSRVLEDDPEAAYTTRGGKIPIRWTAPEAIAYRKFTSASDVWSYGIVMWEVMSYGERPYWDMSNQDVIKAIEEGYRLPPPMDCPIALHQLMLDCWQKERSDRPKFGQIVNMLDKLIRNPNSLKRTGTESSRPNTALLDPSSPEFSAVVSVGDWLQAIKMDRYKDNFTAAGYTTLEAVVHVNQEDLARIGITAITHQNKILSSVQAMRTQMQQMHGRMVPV
Sequence of TTBK2(h) (Q6IQ55 whole entry): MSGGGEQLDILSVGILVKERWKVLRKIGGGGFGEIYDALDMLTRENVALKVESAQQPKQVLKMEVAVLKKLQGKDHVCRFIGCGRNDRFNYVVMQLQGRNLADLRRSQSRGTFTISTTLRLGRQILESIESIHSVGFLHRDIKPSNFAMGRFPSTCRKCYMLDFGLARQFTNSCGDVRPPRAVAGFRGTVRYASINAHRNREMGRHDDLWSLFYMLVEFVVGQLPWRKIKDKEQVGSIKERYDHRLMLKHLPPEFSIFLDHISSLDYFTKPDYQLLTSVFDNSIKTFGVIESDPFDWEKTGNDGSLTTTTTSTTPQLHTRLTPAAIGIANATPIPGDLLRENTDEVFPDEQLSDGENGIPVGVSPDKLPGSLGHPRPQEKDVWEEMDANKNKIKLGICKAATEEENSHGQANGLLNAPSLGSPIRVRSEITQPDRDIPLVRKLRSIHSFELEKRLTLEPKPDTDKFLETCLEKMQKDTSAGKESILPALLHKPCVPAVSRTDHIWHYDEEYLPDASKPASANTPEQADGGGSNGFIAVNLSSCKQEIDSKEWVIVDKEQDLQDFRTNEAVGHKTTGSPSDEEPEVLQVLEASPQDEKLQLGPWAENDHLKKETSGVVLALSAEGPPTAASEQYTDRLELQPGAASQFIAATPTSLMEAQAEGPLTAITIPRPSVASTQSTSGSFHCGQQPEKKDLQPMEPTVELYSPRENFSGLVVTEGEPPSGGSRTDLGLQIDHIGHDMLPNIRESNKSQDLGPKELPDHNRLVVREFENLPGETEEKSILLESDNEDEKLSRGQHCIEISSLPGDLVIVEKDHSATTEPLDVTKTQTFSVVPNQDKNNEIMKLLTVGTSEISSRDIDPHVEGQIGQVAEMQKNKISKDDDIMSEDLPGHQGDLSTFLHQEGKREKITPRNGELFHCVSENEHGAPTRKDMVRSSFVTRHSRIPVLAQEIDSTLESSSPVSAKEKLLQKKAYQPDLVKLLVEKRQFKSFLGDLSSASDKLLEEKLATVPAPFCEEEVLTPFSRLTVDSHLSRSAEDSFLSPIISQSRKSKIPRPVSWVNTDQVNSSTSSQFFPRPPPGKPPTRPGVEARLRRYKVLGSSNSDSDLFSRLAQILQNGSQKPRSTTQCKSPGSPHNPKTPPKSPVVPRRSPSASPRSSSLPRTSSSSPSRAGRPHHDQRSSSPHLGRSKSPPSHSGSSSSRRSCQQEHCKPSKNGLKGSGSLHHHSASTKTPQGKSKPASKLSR
T4 sequence (Q15208 whole entry): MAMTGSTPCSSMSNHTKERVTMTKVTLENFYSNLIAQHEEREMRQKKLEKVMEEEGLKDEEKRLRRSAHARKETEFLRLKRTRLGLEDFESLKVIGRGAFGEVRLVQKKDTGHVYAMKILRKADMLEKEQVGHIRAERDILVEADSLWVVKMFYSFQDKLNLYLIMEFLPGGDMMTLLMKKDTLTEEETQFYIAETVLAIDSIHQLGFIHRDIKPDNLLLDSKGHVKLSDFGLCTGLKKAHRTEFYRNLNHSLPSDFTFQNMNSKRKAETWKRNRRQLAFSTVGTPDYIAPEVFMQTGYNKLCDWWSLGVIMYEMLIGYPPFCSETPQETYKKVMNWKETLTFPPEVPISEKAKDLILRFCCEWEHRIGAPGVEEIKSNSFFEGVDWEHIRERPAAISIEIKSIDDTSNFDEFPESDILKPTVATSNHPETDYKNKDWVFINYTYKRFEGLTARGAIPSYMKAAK

On to `Fc1ccc2ncnc(NCCc3ccc(Cl)cc3)c2c1` [5at, N-[2-(4-Chlorophenyl)Ethyl]-6-Fluoro-4-Quinazolinamine], for which the remaining activity at 10 µM at CSK(h) (setting [1]) was 79%; on DCAMKL1(h) (setting [1]), 89%; at EphA4(h) (setting [1]), 80%; at MLK4(h) (setting [1]) it was 94%; at Mer(h) (setting [1]) it was 89%; on NDR1(h) (setting [1]), 89%. Further, the remaining activity at 10 µM came to 93% at PKCβI(h) (setting [1]) and 111% at TTBK2(h) (setting [1]).

For the molecule `COc1ccc2ncnc(Nc3cccc(F)c3)c2c1` [5ay, N-(3-Fluorophenyl)-6-Methoxy-4-Quinazolinamine], the remaining activity at 10 µM came out at 91% on CSK(h) (setting [2]); 84% on DCAMKL1(h) (setting [2]); 86% on EphA4(h) (setting [2]); 91% on MLK4(h) (setting [2]); 68% at Mer(h) (setting [2]); 98% on NDR1(h) (setting [2]). Besides, the remaining activity at 10 µM is 86% at PKCβI(h) (setting [2]) and 114% at TTBK2(h) (setting [2]).

On to `Fc1ccc(CCNc2ncnc3ccc(F)cc23)cc1` [5as, 6-Fluoro-N-[2-(4-Fluorophenyl)Ethyl]-4-Quinazolinamine], for which the remaining activity at 10 µM on CSK(h) (setting [3]) amounted to 85%; at DCAMKL1(h) (setting [3]), 82%; at EphA4(h) (setting [3]) it was 83%; on MLK4(h) (setting [3]), 93%; at Mer(h) (setting [3]), 83%; on NDR1(h) (setting [3]), 96%. Moreover, the figures for the remaining activity at 10 µM on PKCβI(h) (setting [3]) and at TTBK2(h) (setting [3]) were 100% and 107%, respectively.

For the molecule `Fc1ccc(CNc2ncnc3ccc(F)cc23)cc1` [5aa, 6-Fluoro-N-(4-fluorobenzyl)-4-Quinazolinamine], the remaining activity at 10 µM on CSK(h) (setting [4]) is 82%; on DCAMKL1(h) (setting [4]), 95%; at EphA4(h) (setting [4]) it was 89%; at MLK4(h) (setting [4]), 105%; at Mer(h) (setting [4]), 83%; at NDR1(h) (setting [4]), 108%. Also, the remaining activity at 10 µM on PKCβI(h) (setting [4]) is 95%; at TTBK2(h) (setting [4]) it was 117%.

These data come from publication PMC7827406, “Structure–Activity Relationship (SAR) Study of Spautin-1 to Entail the Discovery of Novel NEK4 Inhibitors” (International Journal of Molecular Sciences, 2021).
